# In ChEMBL document CHEMBL3351707, “Discovery and SAR of muscarinic receptor subtype 1 (M1) allosteric activators from a molecular libraries high throughput screen. Part 1: 2,5-dibenzyl-2H-pyrazolo[4,3-c]quinolin-3(5H)-ones as positive allosteric modulators” (Bioorg Med Chem Lett, 2015):
# The source made the active and inactive calls. No cut-off for these calls is given here.
# Key:
# Format in all cases: functional, cell-based
# [1] = target: T1, Muscarinic acetylcholine receptor M1 (Homo sapiens) (UniProt P11229); experiment: Positive allosteric modulator activity at human muscarinic receptor subtype 1 expressed in CHO-K1 cells by calcium mobilization assay relative to acetylcholine
# T1 sequence (whole entry): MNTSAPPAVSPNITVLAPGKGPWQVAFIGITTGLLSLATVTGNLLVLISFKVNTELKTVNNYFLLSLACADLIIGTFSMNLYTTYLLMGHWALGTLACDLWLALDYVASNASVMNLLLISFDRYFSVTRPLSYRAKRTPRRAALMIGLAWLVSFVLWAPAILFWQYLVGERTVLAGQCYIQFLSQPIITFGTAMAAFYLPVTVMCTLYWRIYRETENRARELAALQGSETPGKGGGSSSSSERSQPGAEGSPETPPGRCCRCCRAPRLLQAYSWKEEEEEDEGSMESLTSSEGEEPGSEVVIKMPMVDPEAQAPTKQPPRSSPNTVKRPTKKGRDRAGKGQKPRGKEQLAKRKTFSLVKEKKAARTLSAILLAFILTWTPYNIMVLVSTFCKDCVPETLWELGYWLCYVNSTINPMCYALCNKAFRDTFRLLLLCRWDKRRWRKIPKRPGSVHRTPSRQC
# [2] = target: T2, Muscarinic acetylcholine receptor M1 (Homo sapiens, UniProt P11229); experiment: (§1) Positive allosteric modulator activity at human muscarinic receptor subtype 1 expressed in CHO-K1 cells by calcium mobilization assay
# T2 sequence (P11229 whole entry): T1 sequence (whole entry)
# [3] = target: T1, Muscarinic acetylcholine receptor M1 (Homo sapiens); experiment: as §1
# [4] = target: T1, Muscarinic acetylcholine receptor M1 (Homo sapiens); experiment: Positive allosteric modulator activity at human muscarinic receptor subtype 1 expressed in CHO-K1 cells at 30 uM by calcium mobilization assay relative to acetylcholine
Emax [1],EC50 ([2]; read-out: EC50) [µM],EC50 ([2]; cho-k1),pEC50 [3],Emax [4] [%],SMILES
40%,0.473,,,,Cc1ccc(C)c(Cn2nc3c4ccccc4n(Cc4ccccc4)cc-3c2=O)c1
,,Not Active,inactive,,O=c1c2cn(Cc3ccccc3)c3ccccc3c-2nn1Cc1ccccc1
,> 10,,,59,O=c1c2cn(Cc3ccccc3)c3ccccc3c-2nn1Cc1ccccn1
83%,3.79,,,,Cc1ccc(Cn2nc3c4ccccc4n(Cc4ccccn4)cc-3c2=O)c(C)c1
,> 10,,,54,O=c1c2cn(Cc3ccccc3)c3ccccc3c-2nn1Cc1ccncc1
,0.845,,,,Cc1cc(NC(=O)CS(=O)(=O)c2cn(Cc3ccc(-c4cnn(C)c4)nc3)c3cc(F)cc(F)c23)no1
39%,0.821,,,,COc1ccc(Cn2cc3c(=O)n(Cc4ccc(C)cc4C)nc-3c3ccccc32)cc1
61%,,,,,O=C1C(=O)N(Cc2ccc(-n3cccn3)cc2)c2ccccc21
,> 10,,,50,O=c1c2cn(Cc3ccc(-n4cccn4)cc3)c3ccccc3c-2nn1Cc1ccccc1
88%,2.43,,,,Cn1nc2c3ccccc3n(Cc3ccc(-n4cccn4)cc3)cc-2c1=O
,,Not Active,inactive,,O=c1c2c[nH]c3ccccc3c-2nn1Cc1ccc(-n2cccn2)cc1
83%,1.2,,,,O=c1[nH]nc2c3ccccc3n(Cc3ccc(-n4cccn4)cc3)cc1-2
89%,0.6,,,,Cn1cc(-c2ccc(Cn3cc4c(=O)[nH]nc-4c4ccccc43)c(F)c2)cn1
inactive,,Not Active,inactive,,Cc1ccc(Cn2nc3c4ccccc4n(Cc4ccccc4C)cc-3c2=O)c(C)c1
inactive,,Not Active,inactive,,Cc1ccc(Cn2cc3c(=O)n(Cc4ccc(C)cc4C)nc-3c3ccccc32)cc1
74%,1.94,,,,Cc1ccc(Cn2nc3c4ccccc4n(Cc4ccc(-c5cnn(C)c5)cc4F)cc-3c2=O)c(C)c1
36%,1.01,,,,O=c1c2cn(Cc3ccccc3)c3ccccc3c-2nn1Cc1ccccc1F
,,Not Active,,,Cc1ccc(C)c(CN2C(=O)C(=O)c3ccccc32)c1
inactive,,Not Active,inactive,,COc1ccc(Cn2cc3c(=O)n(Cc4ccc(C)cc4C)nc-3c3ccccc32)c(F)c1

Emax [1],EC50 ([2]; read-out: EC50) [µM],EC50 ([2]; cho-k1),pEC50 [3],Emax [4] [%],SMILES
46%,0.656,,,,Cc1ccc(Cn2nc3c4ccccc4n(Cc4ccccc4F)cc-3c2=O)c(C)c1
,> 10,,,48,Cn1nc2c3ccccc3n(Cc3ccccc3)cc-2c1=O
47%,0.783,,,,Cc1ccccc1Cn1nc2c3ccccc3n(Cc3ccccc3)cc-2c1=O
47%,2.02,,,,Cc1ccc(Cn2nc3c4ccccc4n(Cc4ccc(F)cc4)cc-3c2=O)c(C)c1
31%,1.42,,,,Cc1ccc(Cn2nc3c4ccccc4n(Cc4cccc(F)c4)cc-3c2=O)c(C)c1
inactive,,Not Active,inactive,,Cc1cccc(Cn2cc3c(=O)n(Cc4ccc(C)cc4C)nc-3c3ccccc32)c1
82%,1.55,,,,Cc1ccc(Cn2nc3c4ccccc4n(Cc4ccncc4)cc-3c2=O)c(C)c1
,,Not Active,inactive,,O=c1c2cn(Cc3ccccc3)c3ccccc3c-2nn1Cc1ccc(F)cc1
inactive,,Not Active,inactive,,Cc1ccc(Cn2nc3c4ccccc4n(C)cc-3c2=O)c(C)c1
,,Not Active,inactive,,Cc1ccc(Cn2nc3c4ccccc4n(Cc4ccccc4)cc-3c2=O)cc1
,,Not Active,inactive,,O=c1c2cn(Cc3ccccc3)c3ccccc3c-2nn1Cc1cccc(F)c1
,> 30,,,,Cc1ccc(C)c(Cn2nc3c4ccccc4[nH]cc-3c2=O)c1
34%,,,,,O=C1C(=O)N(Cc2ccccc2)c2ccccc21
65%,6.31,,,,O=c1c2cn(Cc3ccccc3)c3ccccc3c-2nn1Cc1cccnc1
,,Not Active,inactive,,Cc1cccc(Cn2nc3c4ccccc4n(Cc4ccccc4)cc-3c2=O)c1
80%,1.15,,,,Cc1ccc(Cn2nc3c4ccccc4n(Cc4ccc(-n5cccn5)cc4)cc-3c2=O)c(C)c1
75%,3.66,,,,Cc1ccc(Cn2nc3c4ccccc4n(Cc4cccnc4)cc-3c2=O)c(C)c1
,,Not Active,inactive,,O=c1c2c[nH]c3ccccc3c-2nn1[C@@H]1CCCC[C@H]1O
,,Not Active,inactive,,Cn1cc(-c2ccc(Cn3nc4c5ccccc5[nH]cc-4c3=O)cc2)cn1
